For the assay, the target named is T1, sphingosine-1-phosphate receptor 1 (S1PR1) (Homo sapiens, UniProt P21453).
T1 construct: full-length, C-terminal TEV fusion
In words: LinkLight S1PR1/β-arrestin interaction assay in HEK293 cells. Type of assay: cell-based.

SMILES strings stand for the structures. pEC50: −log10 of the molar value.

Broadly, the pEC50 is the negative decadic logarithm of the EC50, by convention in mol/L. A high value points to a low EC50.

T1 sequence (P21453 whole entry, the tested form may be a part): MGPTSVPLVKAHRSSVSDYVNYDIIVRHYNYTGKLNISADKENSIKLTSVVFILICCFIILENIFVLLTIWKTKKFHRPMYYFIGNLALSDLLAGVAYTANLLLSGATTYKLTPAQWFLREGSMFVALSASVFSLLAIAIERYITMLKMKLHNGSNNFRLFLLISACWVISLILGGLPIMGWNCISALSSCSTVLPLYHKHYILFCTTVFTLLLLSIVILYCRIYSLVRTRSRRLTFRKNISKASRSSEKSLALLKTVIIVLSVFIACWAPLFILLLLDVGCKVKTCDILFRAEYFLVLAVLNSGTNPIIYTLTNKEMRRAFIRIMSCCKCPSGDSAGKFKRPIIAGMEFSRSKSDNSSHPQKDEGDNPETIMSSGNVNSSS
T1 sequence (P32121 whole entry partner, the tested form may be a part): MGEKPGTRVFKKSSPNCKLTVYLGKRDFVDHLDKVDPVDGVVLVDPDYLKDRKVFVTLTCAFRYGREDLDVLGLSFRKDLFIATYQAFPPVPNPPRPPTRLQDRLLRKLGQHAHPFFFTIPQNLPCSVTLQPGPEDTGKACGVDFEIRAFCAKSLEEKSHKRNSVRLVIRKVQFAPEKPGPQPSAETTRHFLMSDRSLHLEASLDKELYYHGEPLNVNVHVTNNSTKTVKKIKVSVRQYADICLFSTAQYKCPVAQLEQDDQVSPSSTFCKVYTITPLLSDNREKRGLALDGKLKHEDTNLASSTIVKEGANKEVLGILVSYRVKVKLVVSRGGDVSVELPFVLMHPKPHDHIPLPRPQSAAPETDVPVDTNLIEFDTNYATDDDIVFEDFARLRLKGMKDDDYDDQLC

`CCCCCCCCCCCCC/C=C/[C@@H](O)[C@@H](N)COP(=O)(O)O` [S1P] showed a pEC50 of 6.89.

These data come from PMC6673703, “14-3-3 signal adaptor and scaffold proteins mediate GPCR trafficking” (Scientific Reports, 2019).
